Measurements reported in ChEMBL document CHEMBL4699402, “Identification of N-benzothiazolyl-2-benzenesulfonamides as novel ABCA1 expression upregulators” (RSC Med Chem, 2020).
Calls of active or inactive are those of the source. The rule behind the calls is not given here.

Columns and labels:
RAW264.7 [1] = experiment: Upregulation of ABCA1 protein expression in mouse RAW264.7 cells incubated for 24 hrs by western blot analysis; assay type: functional, cell-based; conditions: dose microM 2.5-10, time 24.0 hrs
HepG2 [2] = experiment: Cytotoxicity against human HepG2 cells assessed as reduction in cell viability incubated for 72 hrs measured by CCK8 assay; assay type: cell-based; conditions: hepg2, 72 h
[3] = Upregulation of ABCA1 expression in human HepG2 cells expressing luciferase plasmid incubated for 24 hrs by luciferase reporter gene assay; assay type: functional, cell-based; conditions: HepG2, 24 h
[4] = Upregulation of ABCA1 expression in human HepG2 cells expressing luciferase plasmid assessed as maximal fold increase incubated for 24 hrs by luciferase reporter gene assay relative to control; assay type: functional
[5] = Upregulation of ABCA1 expression in human HepG2 cells expressing luciferase plasmid assessed as maximal increase incubated for 24 hrs by luciferase reporter gene assay relative to control; assay type: functional
[6] = Upregulation of ABCA1 mRNA expression in mouse RAW264.7 cells assessed as maximal fold increase at 5 uM incubated for 24 hrs by RT-qPCR analysis relative to control; assay type: functional
[7] = Potency index, ration of WY06 EC50 to test compound EC50 for upregulation of ABCA1 expression in human HepG2 cells expressing luciferase plasmid incubated for 24 hrs by luciferase reporter gene assay; assay type: functional
[8] = Upregulation of ABCA1 mRNA expression in mouse RAW264.7 cells assessed as maximal upregulation at 10 uM incubated for 24 hrs by RT-qPCR analysis relative to control; assay type: functional
[9] = Upregulation of ABCA1 protein expression in mouse RAW264.7 cells assessed as maximal increase at 10 uM incubated for 24 hrs by western blot analysis relative to control; assay type: functional
HepG2 [10] = experiment: Upregulation of ABCA1 expression in human HepG2 cells expressing luciferase plasmid incubated for 24 to 48 hrs by luciferase reporter gene assay; assay type: functional, cell-based; conditions: dose microM 0.78-50, time hrs 24-48
RAW264.7 [11] = experiment: Induction of cholesterol efflux in mouse RAW264.7 cells assessed as decrease in cellular 22-NBD-cholesterol content at 2.5 to 10 uM incubated for 24 hrs by DAPI staining based fluorescence analysis; assay type: functional, cell-based; conditions: dose microM 2.5-10, time 24.0 hrs
RAW264.7 [12] = experiment: Upregulation of ApoA-I protein expression in mouse RAW264.7 cells at 2.5 to 10 uM by western blot analysis; assay type: functional, cell-based; conditions: dose microM 2.5-10
RAW264.7 [13] = experiment: Upregulation of ABCA1 mRNA expression in mouse RAW264.7 cells at 2.5 to 10 uM incubated for 24 hrs by RT-qPCR analysis; assay type: functional, cell-based; conditions: dose microM 2.5-10, time 24.0 hrs
RAW264.7 [14] = experiment: Upregulation of ABCA1 protein expression in mouse RAW264.7 cells at 2.5 to 10 uM incubated for 24 hrs by western blot analysis; assay type: functional, cell-based; conditions: dose microM 2.5-10, time 24.0 hrs
RAW264.7 [15] = experiment: Upregulation of ABCA1 mRNA expression in mouse RAW264.7 cells at 5 uM incubated for 24 hrs by RT-qPCR analysis; assay type: functional, cell-based

| Structure (SMILES) | EC50 [3] [µM] | Activity (HepG2 [2]) | Activity [5] [%] | further results |
| --- | --- | --- | --- | --- |
| N#CCN(c1nc2ccc(Cl)cc2s1)S(=O)(=O)c1cccc(N)c1 | 5.84 | Non-Toxic | 168 | Activity (RAW264.7 [1]): Dose-dependent effect; fold change (FC) [4]: 1.68; fold change (FC) [6]: 1.5 |
| N#CCN(c1nc2ccccc2s1)S(=O)(=O)c1ccc(N)cc1 | 8.51 | – | 157 | – |
| C=CCN(c1nc2ccccc2s1)S(=O)(=O)c1cccc(N)c1 | > 50 | – | 136 | – |
| CCOC(=O)CN(c1nc2ccccc2s1)S(=O)(=O)c1ccc(N)cc1 | 1.24 | Non-Toxic | 209 | – |
| N#CCN(c1nc2ccc(Cl)cc2s1)S(=O)(=O)c1ccc(N)cc1 | 0.41 | Non-Toxic | 206 | Activity (RAW264.7 [1]): Dose-dependent effect; Ratio EC50 [7]: >15; Activity [8]: 210%; Activity [9]: 240%; Activity (HepG2 [10]): Dose-dependent effect; Activity (RAW264.7 [11]): Active; Activity (RAW264.7 [12]): inactive |
| CCOC(=O)CN(c1nc2ccc(OC)cc2s1)S(=O)(=O)c1ccc(N)cc1 | 6.38 | Non-Toxic | 138 | Activity (RAW264.7 [13]): inactive; fold change (FC) [4]: 1.38; Activity (RAW264.7 [14]): inactive |
| CCOC(=O)CN(c1nc2ccc(F)cc2s1)S(=O)(=O)c1ccc(N)cc1 | 0.97 | Non-Toxic | 167 | – |
| CCOC(=O)CN(c1nc2ccc(Cl)cc2s1)S(=O)(=O)c1ccc(N)cc1 | 0.37 | Non-Toxic | 174 | Activity (RAW264.7 [1]): Dose-dependent effect; Activity (RAW264.7 [15]): Active; fold change (FC) [4]: 1.74; Ratio EC50 [7]: >=15 |

Second part, led by results:

| EC50 [3] [µM] | Structure (SMILES) | Activity (HepG2 [2]) | Activity [5] [%] | further results |
| --- | --- | --- | --- | --- |
| 33.4 | C=CCN(c1nc2ccccc2s1)S(=O)(=O)c1ccc(N)cc1 | – | 115 | – |
| 2.57 | N#CCN(c1nc2ccc(F)cc2s1)S(=O)(=O)c1ccc(N)cc1 | – | 163 | – |
| 26 | C=CCN(c1nc2ccc(F)cc2s1)S(=O)(=O)c1cccc(N)c1 | – | 152 | – |
| 7.4 | C=CCN(c1nc2ccc(F)cc2s1)S(=O)(=O)c1ccc(N)cc1 | – | 135 | – |
| > 50 | N#CCN(c1nc2ccccc2s1)S(=O)(=O)c1cccc(N)c1 | – | 124 | – |
| 10.6 | C=CCN(c1nc2ccc(Cl)cc2s1)S(=O)(=O)c1ccc(N)cc1 | – | 135 | – |
